pEC50: −log10 of the molar value. Each block holds one compound with its values, some of them ahead of it.
Columns and labels:
LeuT [1] = test: Scintillation proximity assay, time course of 3H-substrate binding to LeuT with or without Na+ pre-incubation; design: species or system Aquifex aeolicus; settings: 3H-Leu 100 nM or 3H-Ala 500 nM, LeuT wild type
Description: We bound ^3H-leucine (140 Ci mmol^–1; Moravek) to purified LeuT-variants using the scintillation proximity assay (SPA) as described[17],[18] with 25 ng of purified protein per assay in buffer composed of 50 mM Tris/Mes (pH 8.0), 100 mM NaCl, 1 mM TCEP, 20% glycerol and 1 mM DDM.
Supplementary Figure 5. Pre-incubation of LeuT with Na+ modulates substrate binding.
The time course of binding of (a,c,d) 3H-Leu (100 nM) or (b) 3H-Ala (500 nM) to LeuT wild type (WT; a,b) or LeuT-L400S (c) or -F253A (d) in the absence (open black squares) or presence (filled red circles) of Na+ was measured using the scintillation proximity assay4 (see Methods). Data are shown as mean ± s.e.m. of three technical replicates of a representative experiment performed in parallel (experiments with individual mutants were repeated ≥ 2) and normalized with regard to the steady state level of LeuT-WT. […]

LeuT [2] = test: smFRET imaging of intracellular-labeled LeuT (H7C/R86C), FRET state occupancy and dynamics; assay type: biochemical, Aquifex aeolicus
Description: Fluorescence experiments were performed using a prism-based total internal reflection fluorescence (TIRF) microscope as previously described[15],[16]. Microfluidic imaging chambers passivated with a mixture of PEG and biotin-PEG were prepared with 0.8 µM streptavidin (Invitrogen) and 4 nM biotin-tris-(NTA-Ni^2+)[46]. Fluorophore labeled, His-tagged LeuT molecules were reversibly immobilized to the surface-associated Ni^2+ atoms. LD550 (Cy3) fluorophores were excited by the evanescent wave generated by total internal reflection (TIR) of a 532 nm diode-pumped solid state laser (Opus, Laser Quantum). Photons emitted from LD550 (Cy3) and LD650 (Cy5) were collected using a 1.27 NA 60 × PlanApo water-immersion objective (Nikon) and a MultiCam-LS device (Cairn) with a T635lpxr-UF2 dichroic mirror (Chroma) to separate the spectral channels onto two synchronized sCMOS cameras (Flash 4.0 v2, Hamamatsu). Fluorescence data were acquired using custom software implemented in LabView (National Instruments) at 10 frames per second (100 ms time resolution).
Unless otherwise specified, all experiments were performed at 25 °C in buffer containing 50 mM Tris/Mes (pH 7.0), 10% glycerol, 1 mM DDM (Anatrace), 1 mM 2-mercaptoethanol and 200 mM total salt (KCl and NaCl, as specified). An oxygen-scavenging environment consisting of 0.2 units per ml purified glucose oxidase (Sigma G2133), 1.8 units per μl purified catalase (Sigma C40), 0.1% (v/v) glucose was used in all experiments to minimize photobleaching.
(§1) Analysis of single-molecule fluorescence data was performed using custom software written in MATLAB (MathWorks)[22]. […] FRET traces were calculated as EFRET=IA∕(IA+ID) , where IA and ID are the donor and acceptor fluorescence traces, and set to zero whenever the donor was in the dark state. […] SNRSignal (12:1 on average) is the signal magnitude relative to noise within the fluorescence trace prior to photobleaching, which includes all noise sources, including photon statistics and photophysical noise, in addition to background noise. […]

LeuT [3] = test: smFRET imaging of extracellular-labeled LeuT (K239C/H480C), FRET state occupancy and dynamics; assay type: biochemical, Aquifex aeolicus; settings: no substrate
Description: Fluorescence experiments were performed using a prism-based total internal reflection fluorescence (TIRF) microscope as previously described[15],[16]. Microfluidic imaging chambers passivated with a mixture of PEG and biotin-PEG were prepared with 0.8 µM streptavidin (Invitrogen) and 4 nM biotin-tris-(NTA-Ni^2+)[46]. Fluorophore labeled, His-tagged LeuT molecules were reversibly immobilized to the surface-associated Ni^2+ atoms. LD550 (Cy3) fluorophores were excited by the evanescent wave generated by total internal reflection (TIR) of a 532 nm diode-pumped solid state laser (Opus, Laser Quantum). […] Fluorescence data were acquired using custom software implemented in LabView (National Instruments) at 10 frames per second (100 ms time resolution). […]
as §1

- Effect of pre-incubating LeuT with Na+ on the rate of substrate binding (LeuT [1]): dramatically slowed
Compound: CC(C)C[C@H](N)C(=O)O [Leu, leucine]

- pEC50 (LeuT [2]; NaCl titration in the presence of 250 μM Ala, read-out: EC50 values of dose-response fits of intracellular low-, intermediate- and high-FRET state occupancies): 1.70 to 2.10
- pEC50 (LeuT [3]; Na+ titration, Hill coefficient fixed at 2.0, read-out: EC50 of dose-response fit of extracellular FRET state occupancy): 1.26
Compound: [Na+] [Na^+, sodium]

- Effect of pre-incubating LeuT with Na+ on the rate of substrate binding (LeuT [1]): no such delay in binding
Compound: C[C@H](N)C(=O)O [Ala, alanine]

- pEC50 (LeuT [2]; LiCl titration in the presence of 250 μM Ala, Hill coefficient fixed at 2.0, read-out: EC50 of dose-response fit of intracellular high-FRET state occupancy): 1.00
- pEC50 (LeuT [2]; LiCl titration in the presence of 250 μM Ala, Hill coefficient fixed at 2.0, read-out: EC50 of dose-response fit of intracellular intermediate-FRET state occupancy): 1.17
- EC50 for inducing high-FRET state stabilization, fold higher than for Na+ (LeuT [3]; extracellular side): seven-fold higher
Compound: [Li+] [Li^+]
